Measurements published in publication PMC3707110 (Nature methods, 2012).
Non-standard residues stand in square brackets, D forms with d. Residues, ends and D or L forms follow the SMILES beside them. *: point of attachment. Sta = CC(C)C[C@H](N)[C@@H](O)CC(=O)O; Isovaleryl = CC(C)CC(=O)*

Key:
[1] = test system: peptidases in conditioned media from pancreatic ductal adenocarcinoma cells; type: biochemical, mouse; conditions: media pre-treated 30 minutes at room temperature with 1 μM E64, 1 μM 1,10-Phenanthroline or 400 nM pepstatin; pH 5.2; within 1200 minutes
[2] = test system: Granzyme B; conditions: fluorescent substrate containing the sequence; previous studies; cited from earlier work

| Compound | effect on cleavage sites / cleavage signature of conditioned media [1] | catalytic efficiency (kcat/KM) [2] |
| --- | --- | --- |
| c1cnc2c(c1)ccc1cccnc12 [1,10-phenanthroline] | majority of cleavage sites remained unchanged | – |
| CC(C)C[C@H](NC(=O)[C@H]1O[C@@H]1C(=O)O)C(=O)NCCCCN=C(N)N [E-64] | majority of cleavage sites remained unchanged | – |
| CC(C)CC(=O)N[C@H](C(=O)N[C@H](C(=O)N[C@@H](CC(C)C)[C@@H](O)CC(=O)N[C@@H](C)C(=O)N[C@@H](CC(C)C)[C@@H](O)CC(=O)O)C(C)C)C(C)C [pepstatin] (Isovaleryl-VV[Sta]A[Sta]-OH) | completely altered the cleavage signature | – |
| VVAD↓SSMES | – | 116,000 M^−1 s^−1 |
